# Biological target: truncated PI3Kα (p110α/iSH2 p85α) (Homo sapiens (Human), UniProt P42336)
# Test: PI3KA_Act fluorescence polarization kinase assay (Ki)
# Type: biochemical
# Settings: 1 mM ATP
# Method in brief: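 Ki values result from fitting fluorescence polarization signals to the Morrison equation for tight-binding competitive inhibitors. The detector was GST-Grp1 PH domain with TAMRA-PIP3, read after a 30 min room-temperature reaction of 0.5 nM truncated PI3Kα and 30 μM PIP2 at pH 7.4 in HEPES/NaCl/MgCl2/DTT/CHAPS buffer. Compounds were tested as 12-point 3-fold dilutions from 3 μM.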
# Sequence of truncated PI3Kα (p110α/iSH2 p85α) (P42336 whole entry, the tested form may be a part): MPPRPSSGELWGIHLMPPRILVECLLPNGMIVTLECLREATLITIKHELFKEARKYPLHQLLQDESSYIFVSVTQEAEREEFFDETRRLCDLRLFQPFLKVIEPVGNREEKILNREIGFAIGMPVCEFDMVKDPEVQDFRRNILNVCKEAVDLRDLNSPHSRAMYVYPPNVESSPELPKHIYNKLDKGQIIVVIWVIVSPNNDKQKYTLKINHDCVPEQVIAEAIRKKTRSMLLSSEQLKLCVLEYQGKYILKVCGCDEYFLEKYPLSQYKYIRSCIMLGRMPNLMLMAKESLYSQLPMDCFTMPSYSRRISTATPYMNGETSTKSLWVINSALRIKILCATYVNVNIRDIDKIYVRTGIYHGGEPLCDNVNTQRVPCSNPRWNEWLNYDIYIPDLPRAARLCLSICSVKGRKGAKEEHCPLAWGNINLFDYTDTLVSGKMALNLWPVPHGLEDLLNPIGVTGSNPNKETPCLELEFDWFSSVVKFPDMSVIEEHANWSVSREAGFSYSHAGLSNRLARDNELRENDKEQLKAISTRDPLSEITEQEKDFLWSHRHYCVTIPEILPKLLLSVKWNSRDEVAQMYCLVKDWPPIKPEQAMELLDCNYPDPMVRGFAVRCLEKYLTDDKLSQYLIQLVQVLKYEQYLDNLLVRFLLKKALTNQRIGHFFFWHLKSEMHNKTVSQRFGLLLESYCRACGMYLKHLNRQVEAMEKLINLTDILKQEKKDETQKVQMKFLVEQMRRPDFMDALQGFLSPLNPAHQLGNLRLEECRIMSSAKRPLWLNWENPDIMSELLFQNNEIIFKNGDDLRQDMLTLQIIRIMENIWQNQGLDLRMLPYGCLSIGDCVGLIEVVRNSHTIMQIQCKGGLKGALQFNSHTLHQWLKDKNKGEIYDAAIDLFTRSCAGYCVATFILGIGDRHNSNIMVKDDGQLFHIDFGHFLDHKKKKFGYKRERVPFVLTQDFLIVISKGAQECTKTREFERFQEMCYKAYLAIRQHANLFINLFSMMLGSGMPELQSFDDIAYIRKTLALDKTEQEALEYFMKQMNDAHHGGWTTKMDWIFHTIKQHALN
row,Compound,PI3KA_Act Ki [pM]
1,"C[C@]1(N2CCc3c(-c4cnc(N)nc4)nc(N4CCOCC4)nc32)CCN(C(=O)[C@H](N)CF)C1.Cl [Example 292, (2S)-2-amino-1-{(3S)-3-[4-(2-aminopyrimidin-5-yl)-2-(morpholin-4-yl)-5,6-dihydro-7H-pyrrolo[2,3-d]pyrimidin-7-yl]-3-methylpyrrolidin-1-yl}-3-fluoropropan-1-one hydrochloride]",<18
2,"C[C@]1(N2CCc3c(-c4cnc(N)nc4)nc(N4CCOCC4)nc32)CCN(C(=O)[C@@H](N)CF)C1.Cl [Example 293, (2R)-2-amino-1-{(3S)-3-[4-(2-aminopyrimidin-5-yl)-2-(morpholin-4-yl)-5,6-dihydro-7H-pyrrolo[2,3-d]pyrimidin-7-yl]-3-methylpyrrolidin-1-yl}-3-fluoropropan-1-one hydrochloride]",86
3,"CC(N)(CF)C(=O)N1CC[C@](C)(N2CCc3c(-c4cnc(N)nc4)nc(N4CCOCC4)nc32)C1.Cl (stereo partly drawn) [Example 294, 2-amino-1-{(3S)-3-[4-(2-aminopyrimidin-5-yl)-2-(morpholin-4-yl)-5,6-dihydro-7H-pyrrolo[2,3-d]pyrimidin-7-yl]-3-methylpyrrolidin-1-yl}-3-fluoro-2-methylpropan-1-one hydrochloride]",<18
4,"C[C@]1(N2CCc3c(-c4cnc(N)nc4)nc(N4CCOCC4)nc32)CCN(C(=O)[C@@H](N)C2CC2)C1.Cl [Example 296, (2S)-2-amino-1-{(3S)-3-[4-(2-aminopyrimidin-5-yl)-2-(morpholin-4-yl)-5,6-dihydro-7H-pyrrolo[2,3-d]pyrimidin-7-yl]-3-methylpyrrolidin-1-yl}-2-cyclopropylethanone hydrochloride]",<18
5,"C[C@]1(N2CCc3c(-c4cnc(N)nc4)nc(N4CCOCC4)nc32)CCN(C(=O)[C@H](N)C2CC2)C1.Cl [Example 297, (2R)-2-amino-1-{(3S)-3-[4-(2-aminopyrimidin-5-yl)-2-(morpholin-4-yl)-5,6-dihydro-7H-pyrrolo[2,3-d]pyrimidin-7-yl]-3-methylpyrrolidin-1-yl}-2-cyclopropylethanone hydrochloride]",19
6,"CNCC(=O)N1CC[C@](C)(N2CCc3c(-c4cnc(N)nc4)nc(N4CCOCC4)nc32)C1 [Example 298, 1-{(3S)-3-[4-(2-aminopyrimidin-5-yl)-2-(morpholin-4-yl)-5,6-dihydro-7H-pyrrolo[2,3-d]pyrimidin-7-yl]-3-methylpyrrolidin-1-yl}-2-(methylamino)ethanone]",<18
7,"CN(C)CC(=O)N1CC[C@](C)(N2CCc3c(-c4cnc(N)nc4)nc(N4CCOCC4)nc32)C1 [Example 299, 1-{(3S)-3-[4-(2-aminopyrimidin-5-yl)-2-(morpholin-4-yl)-5,6-dihydro-7H-pyrrolo[2,3-d]pyrimidin-7-yl]-3-methylpyrrolidin-1-yl}-2-(dimethylamino) ethanone]",<18
8,"CN(C)CC(=O)N1CC[C@@](C)(N2CCc3c(-c4cnc(N)nc4)nc(N4CCOCC4)nc32)C1 [Example 300, 1-{(3R)-3-[4-(2-aminopyrimidin-5-yl)-2-(morpholin-4-yl)-5,6-dihydro-7H-pyrrolo[2,3-d]pyrimidin-7-yl]-3-methylpyrrolidin-1-yl}-2-(dimethylamino) ethanone]",669
9,"C[C@H](C(=O)N1CC[C@](C)(N2CCc3c(-c4cnc(N)nc4)nc(N4CCOCC4)nc32)C1)N(C)C [Example 301, (2R)-1-{(3S)-3-[4-(2-aminopyrimidin-5-yl)-2-(morpholin-4-yl)-5,6-dihydro-7H-pyrrolo[2,3-d]pyrimidin-7-yl]-3-methylpyrrolidin-1-yl}-2-(dimethylamino) propan-1-one]",73
10,"CC(C(=O)N1CC[C@](C)(N2CCc3c(-c4cnc(N)nc4)nc(N4CCOCC4)nc32)C1)N(C)C (stereo partly drawn) [Example 302, 1-{(3S)-3-[4-(2-aminopyrimidin-5-yl)-2-(morpholin-4-yl)-5,6-dihydro-7H-pyrrolo[2,3-d]pyrimidin-7-yl]-3-methylpyrrolidin-1-yl}-2-(dimethylamino) propan-1-one]",38
11,"CNC(C)(C)C(=O)N1CC[C@](C)(N2CCc3c(-c4cnc(N)nc4)nc(N4CCOCC4)nc32)C1.Cl [Example 303, 1-{(3S)-3-[4-(2-aminopyrimidin-5-yl)-2-(morpholin-4-yl)-5,6-dihydro-7H-pyrrolo[2,3-d]pyrimidin-7-yl]-3-methylpyrrolidin-1-yl}-2-methyl-2-(methylamino) propan-1-one hydrochloride]",25
12,"CN(C)C(C)(C)C(=O)N1CC[C@](C)(N2CCc3c(-c4cnc(N)nc4)nc(N4CCOCC4)nc32)C1 [Example 304, 1-{(3S)-3-[4-(2-aminopyrimidin-5-yl)-2-(morpholin-4-yl)-5,6-dihydro-7H-pyrrolo[2,3-d]pyrimidin-7-yl]-3-methylpyrrolidin-1-yl}-2-(dimethylamino)-2-methylpropan-1-one]",<18
13,"CC(C)(CN)C(=O)N1CC[C@](C)(N2CCc3c(-c4cnc(N)nc4)nc(N4CCOCC4)nc32)C1.Cl [Example 305, 3-amino-1-{(3S)-3-[4-(2-aminopyrimidin-5-yl)-2-(morpholin-4-yl)-5,6-dihydro-7H-pyrrolo[2,3-d]pyrimidin-7-yl]-3-methylpyrrolidin-1-yl}-2,2-dimethylpropan-1-one hydrochloride]",36
14,"CNCC(C)(C)C(=O)N1CC[C@](C)(N2CCc3c(-c4cnc(N)nc4)nc(N4CCOCC4)nc32)C1.Cl [Example 306, 1-{(3S)-3-[4-(2-aminopyrimidin-5-yl)-2-(morpholin-4-yl)-5,6-dihydro-7H-pyrrolo[2,3-d]pyrimidin-7-yl]-3-methylpyrrolidin-1-yl}-2,2-dimethyl-3-(methylamino) propan-1-one hydrochloride]",<18
15,"C[C@]1(N2CCc3c(-c4cnc(N)nc4)nc(N4CCOCC4)nc32)CCN(C(=O)C(F)(F)CN)C1.Cl [Example 307, 3-amino-1-{(3S)-3-[4-(2-aminopyrimidin-5-yl)-2-(morpholin-4-yl)-5,6-dihydro-7H-pyrrolo[2,3-d]pyrimidin-7-yl]-3-methylpyrrolidin-1-yl}-2,2-difluoropropan-1-one hydrochloride]",<18
16,"C[C@@]1(N2CCc3c(-c4cnc(N)nc4)nc(N4CCOCC4)nc32)CCN(C(=O)CC(F)(F)F)C1 [Example 308, 1-{(3R)-3-[4-(2-aminopyrimidin-5-yl)-2-(morpholin-4-yl)-5,6-dihydro-7H-pyrrolo[2,3-d]pyrimidin-7-yl]-3-methylpyrrolidin-1-yl}-3,3,3-trifluoropropan-1-one]",126
17,"C[C@]1(N2CCc3c(-c4cnc(N)nc4)nc(N4CCOCC4)nc32)CCN(C(=O)CC(F)(F)F)C1 [Example 309, 1-{(3S)-3-[4-(2-aminopyrimidin-5-yl)-2-(morpholin-4-yl)-5,6-dihydro-7H-pyrrolo[2,3-d]pyrimidin-7-yl]-3-methylpyrrolidin-1-yl}-3,3,3-trifluoropropan-1-one]",56
18,"CC(C)[C@@H](N)C(=O)N1CC[C@](C)(N2CCc3c(-c4cnc(N)nc4)nc(N4CCOCC4)nc32)C1.Cl [Example 310, (2R)-2-amino-1-{(3S)-3-[4-(2-aminopyrimidin-5-yl)-2-(morpholin-4-yl)-5,6-dihydro-7H-pyrrolo[2,3-d]pyrimidin-7-yl]-3-methylpyrrolidin-1-yl}-3-methylbutan-1-one hydrochloride]",22
19,"C[C@]1(N2CCc3c(-c4cnc(N)nc4)nc(N4CCOCC4)nc32)CCN(C(=O)[C@@](C)(N)C(F)(F)F)C1.Cl [Example 311, (2R)-2-amino-1-{(3S)-3-[4-(2-aminopyrimidin-5-yl)-2-(morpholin-4-yl)-5,6-dihydro-7H-pyrrolo[2,3-d]pyrimidin-7-yl]-3-methylpyrrolidin-1-yl}-3,3,3-trifluoro-2-methylpropan-1-one hydrochloride]",54
20,"C[C@]1(N2CCc3c(-c4cnc(N)nc4)nc(N4CCOCC4)nc32)CCN(C(=O)[C@](C)(N)C(F)(F)F)C1.Cl [Example 312, (2S)-2-amino-1-{(3S)-3-[4-(2-aminopyrimidin-5-yl)-2-(morpholin-4-yl)-5,6-dihydro-7H-pyrrolo[2,3-d]pyrimidin-7-yl]-3-methylpyrrolidin-1-yl}-3,3,3-trifluoro-2-methylpropan-1-one hydrochloride]",37
21,"C[C@]1(N2CCc3c(-c4cnc(N)nc4)nc(N4CCOCC4)nc32)CCN(C(=O)[C@@H](N)C(F)(F)F)C1.Cl [Example 313, (2R)-2-amino-1-{(3S)-3-[4-(2-aminopyrimidin-5-yl)-2-(morpholin-4-yl)-5,6-dihydro-7H-pyrrolo[2,3-d]pyrimidin-7-yl]-3-methylpyrrolidin-1-yl}-3,3,3-trifluoropropan-1-one hydrochloride]",128
22,"C[C@]1(N2CCc3c(-c4cnc(N)nc4)nc(N4CCOCC4)nc32)CCN(C(=O)[C@H](N)C(F)(F)F)C1.Cl [Example 314, (2S)-2-amino-1-{(3S)-3-[4-(2-aminopyrimidin-5-yl)-2-(morpholin-4-yl)-5,6-dihydro-7H-pyrrolo[2,3-d]pyrimidin-7-yl]-3-methylpyrrolidin-1-yl}-3,3,3-trifluoropropan-1-one hydrochloride]",<18
23,"CC(C(N)=O)C(=O)N1CC[C@](C)(N2CCc3c(-c4cnc(N)nc4)nc(N4CCOCC4)nc32)C1 (stereo partly drawn) [Example 315, 3-{(3S)-3-[4-(2-aminopyrimidin-5-yl)-2-(morpholin-4-yl)-5,6-dihydro-7H-pyrrolo[2,3-d]pyrimidin-7-yl]-3-methylpyrrolidin-1-yl}-2-methyl-3-oxopropanamide]",<18
